# Reference: patent US10206937B2, “Boronic acid derivatives and therapeutic uses thereof” (Qpex Biopharma, Inc., priority 2014, dated 2019)
# What was measured:
# [1] = target: T1, NDM-1 (Klebsiella pneumoniae, UniProt C7C422); test: biochemical
# [2] = target: T2, VIM-1 (Pseudomonas aeruginosa, UniProt A0A0F7KYQ8); test: biochemical; conditions: cleavage of nitrocefin (200 uM) by VIM-1 supernatant
# T2 construct: made in house; host or cells: ECM6711 strain carrying pUCP24-VIM-1 plasmid; culture supernatant used unpurified
# [3] = target: T1, NDM-1; test: Inhibition of purified class B carbapenemase NDM-1 (Ki, imipenem substrate); assay type: biochemical; conditions: NDM-1, substrate imipenem; read-out: Ki NDM-1, Imipenem
# [4] = target: T3, purified class A, C and D enzymes (UniProt Q9F663); assay type: biochemical; conditions: read-out: Ki (KPC-2, NCF); purified KPC-2; nitrocefin reporter substrate
# T3 construct: rows headed: Ki (KPC-2, NCF); other: purified KPC-2; nitrocefin reporter substrate
# [5] = target: T4, purified class A, C and D enzymes (UniProt P0AD64, L31Q/G234S/E235K, species not given); assay type: biochemical; conditions: read-out: Ki (SHV-12, NCF); purified SHV-12; nitrocefin reporter substrate
# T4 construct: Ki (SHV-12, NCF); other: purified SHV-12; nitrocefin reporter substrate
# T4 sequence (P0AD64 1-286 L31Q/G234S/E235K): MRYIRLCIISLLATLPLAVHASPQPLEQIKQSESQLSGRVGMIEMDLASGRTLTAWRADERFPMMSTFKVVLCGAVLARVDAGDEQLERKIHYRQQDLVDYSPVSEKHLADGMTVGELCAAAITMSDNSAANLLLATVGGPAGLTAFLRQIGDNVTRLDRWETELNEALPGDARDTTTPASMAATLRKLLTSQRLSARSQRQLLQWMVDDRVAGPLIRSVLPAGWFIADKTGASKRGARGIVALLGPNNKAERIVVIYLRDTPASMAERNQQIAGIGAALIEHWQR
# [6] = target: T5, purified class A, C and D enzymes (UniProt Q6XEC0); assay type: biochemical; conditions: read-out: Ki (OXA-48, NCF); purified OXA-48; nitrocefin reporter substrate
# T5 construct: rows headed: Ki (OXA-48, NCF); other: purified OXA-48; nitrocefin reporter substrate
# [7] = target: purified class A, C and D enzymes (Enterobacter cloacae, UniProt P05364); assay type: biochemical; conditions: purified P99/AmpC of ECL; nitrocefin reporter substrate
# purified class A, C and D enzymes (Enterobacter cloacae, UniProt P05364), sequence (P05364 21-381): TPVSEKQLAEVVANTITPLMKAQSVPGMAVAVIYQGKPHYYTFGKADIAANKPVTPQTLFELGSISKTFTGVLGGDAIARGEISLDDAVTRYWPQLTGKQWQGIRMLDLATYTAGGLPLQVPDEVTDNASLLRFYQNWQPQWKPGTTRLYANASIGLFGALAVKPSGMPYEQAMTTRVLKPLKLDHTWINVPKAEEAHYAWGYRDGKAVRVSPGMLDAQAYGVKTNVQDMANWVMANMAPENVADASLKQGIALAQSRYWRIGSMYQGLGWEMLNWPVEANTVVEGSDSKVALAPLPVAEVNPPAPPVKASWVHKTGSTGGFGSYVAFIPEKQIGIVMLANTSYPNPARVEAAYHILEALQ
# [8] = target: purified class A, C and D enzymes (Escherichia coli, UniProt Q9L5C7); assay type: biochemical; conditions: purified CTX-M-14; nitrocefin reporter substrate
# purified class A, C and D enzymes (Escherichia coli, UniProt Q9L5C7), sequence (Q9L5C7 entry or part of it): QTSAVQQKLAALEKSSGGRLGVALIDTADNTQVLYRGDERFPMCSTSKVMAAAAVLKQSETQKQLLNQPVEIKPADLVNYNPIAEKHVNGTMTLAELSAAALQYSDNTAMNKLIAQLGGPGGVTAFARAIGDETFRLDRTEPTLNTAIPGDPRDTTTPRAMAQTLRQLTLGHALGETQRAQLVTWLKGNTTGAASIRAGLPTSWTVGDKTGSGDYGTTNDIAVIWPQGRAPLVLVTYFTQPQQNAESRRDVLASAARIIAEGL
# [9] = cleavage of imipenem (100 uM) by NDM-1, read-out: Ki, Imipenem
# T1 sequence (C7C422 29-270, looked up, species assumed): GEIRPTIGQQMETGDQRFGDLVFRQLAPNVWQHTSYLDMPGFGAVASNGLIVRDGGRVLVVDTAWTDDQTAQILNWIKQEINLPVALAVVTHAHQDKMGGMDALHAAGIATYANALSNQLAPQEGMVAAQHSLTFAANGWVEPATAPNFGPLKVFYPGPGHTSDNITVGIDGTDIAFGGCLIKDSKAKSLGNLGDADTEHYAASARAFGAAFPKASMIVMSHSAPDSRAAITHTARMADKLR
SMILES,"Ki [1, 9] [µM]",IC50 [2] [µM],Ki [3] [µM],Ki [4] [µM],"Ki ([1]; cleavage of biapenem (100 uM) by NDM-1, read-out: Ki, Biapenem) [µM]","Ki ([1]; cleavage of meropenem (100 uM) by NDM-1, read-out: Ki, Meropenem) [µM]",Ki [5] [µM],Ki [6] [µM],"Ki (P99/AmpC of ECL, NCF) [7]","Ki (CTX-M-14, NCF) [8]"
"Cn1nnnc1S[C@H]1Cc2cccc(C(=O)O)c2OB1O [Compound 5, (R)-2-hydroxy-3-(1-methyl-1H-tetrazol-5-ylthio)-3,4-dihydro-2H-benzo[e][1,2]oxaborinine-8-carboxylic acid]",0.01 to 0.1,≥ 1,0.01 to 0.1,,,,,,,
"O=C(O)c1cccc2c1OB(O)[C@@H](Sc1ccccc1)C2 [Compound 6, (R)-2-hydroxy-3-(phenylthio)-3,4-dihydro-2H-benzo[e][1,2]oxaborinine-8-carboxylic acid]",< 0.01,< 1,< 0.01,,,,,,,
"O=C(O)c1cccc2c1OB(O)[C@@H](Sc1cccnc1)C2 [Compound 8, (R)-2-hydroxy-3-(pyridin-3-ylthio)-3,4-dihydro-2H-benzo[e][1,2]oxaborinine-8-carboxylic acid]",> 0.1,< 1,> 0.1,,,,,,,
"CC(=N)S[C@H]1Cc2cccc(C(=O)O)c2OB1O [Compound 10, (R)-2-hydroxy-3-(1-iminoethylthio)-3,4-dihydro-2H-benzo[e][1,2]oxaborinine-8-carboxylic acid]",0.01 to 0.1,≥ 1,0.01 to 0.1,0.1 to 1,,,,,,
"O=C(O)c1cccc2c1OB(O)[C@@H](Sc1c[nH]nn1)C2 [Compound 12, (R)-3-(1H-1,2,3-triazol-4-ylthio)-2-hydroxy-3,4-dihydro-2H-benzo[e][1,2]oxaborinine-8-carboxylic acid]",0.01 to 0.1,< 1,0.01 to 0.1,0.1 to 1,,,,,,
"O=C(O)c1cccc2c1OB(O)[C@@H](OCc1ccccc1)C2 [Compound 13, (R)-3-(benzyloxy)-2-hydroxy-3,4-dihydro-2H-benzo[e][1,2]oxaborinine-8-carboxylic acid]",0.01 to 0.1,< 1,0.01 to 0.1,,,,,,,
"CO[C@H]1Cc2cccc(C(=O)O)c2OB1O [Compound 17, (R)-2-hydroxy-3-methoxy-3,4-dihydro-2H-benzo[e][1,2]oxaborinine-8-carboxylic acid]",0.01 to 0.1,< 1,0.01 to 0.1,< 0.1,0.01 to 0.1,0.01 to 0.1,< 0.1,< 0.1,,
"CO[C@H]1Cc2ccc(F)c(C(=O)O)c2OB1O [Compound 19, (R)-7-fluoro-2-hydroxy-3-methoxy-3,4-dihydro-2H-benzo[e][1,2]oxaborinine-8-carboxylic acid]",< 0.01,< 1,,< 0.1,,,< 0.1,< 0.1,,
"Nn1cnnc1S[C@H]1Cc2ccc(F)c(C(=O)O)c2OB1O [Compound 20, (R)-3-(4-amino-4H-1,2,4-triazol-3-ylthio)-7-fluoro-2-hydroxy-3,4-dihydro-2H-benzo[e][1,2]oxaborinine-8-carboxylic acid]",< 0.01,≥ 1,< 0.01,0.1 to 1,,,< 0.1,0.1 to 1,,
"Cn1cnnc1S[C@H]1Cc2ccc(F)c(C(=O)O)c2OB1O [Compound 24, (R)-7-fluoro-2-hydroxy-3-(4-methyl-4H-1,2,4-triazol-3-ylthio)-3,4-dihydro-2H-benzo[e][1,2]oxaborinine-8-carboxylic acid]",0.01 to 0.1,≥ 1,0.01 to 0.1,0.1 to 1,,,< 0.1,< 0.1,,
"CSc1ccc2c(c1C(=O)O)OB(O)[C@@H](Sc1nncn1N)C2 [Compound 25, (R)-3-(4-amino-4H-1,2,4-triazol-3-ylthio)-2-hydroxy-7-(methylthio)-3,4-dihydro-2H-benzo[e][1,2]oxaborinine-8-carboxylic acid]",< 0.01,< 1,< 0.01,0.1 to 1,,,< 0.1,< 0.1,,
"COc1ccc2c(c1C(=O)O)OB(O)[C@@H](Sc1nncn1N)C2 [Compound 26, (R)-3-(4-amino-4H-1,2,4-triazol-3-ylthio)-2-hydroxy-7-methoxy-3,4-dihydro-2H-benzo[e][1,2]oxaborinine-8-carboxylic acid]",< 0.01,< 1,< 0.01,0.1 to 1,,,< 0.1,< 0.1,Y (0.1 μM to 1 μM),X (Less than 0.1 μM)
"COc1ccc2c(c1C(=O)O)OB(O)[C@@H](Sc1nncn1C)C2 [Compound 28, (R)-2-hydroxy-7-methoxy-3-(4-methyl-4H-1,2,4-triazol-3-ylthio)-3,4-dihydro-2H-benzo[e][1,2]oxaborinine-8-carboxylic acid]",< 0.01,< 1,< 0.01,0.1 to 1,,,< 0.1,< 0.1,Y (0.1 μM to 1 μM),X (Less than 0.1 μM)
"COc1ccc2c(c1C(=O)O)OB(O)[C@@H](SC1CN(S(N)(=O)=O)C1)C2 [Compound 76, (3R)-2-hydroxy-7-methoxy-3-(1-sulfamoylazetidin-3-yl)sulfanyl-3,4-dihydro-1,2-benzoxaborinine-8-carboxylic acid]",> 0.1,≥ 1,> 0.1,0.1 to 1,,,,< 0.1,Y (0.1 μM to 1 μM),X (Less than 0.1 μM)
"O=C(O)c1c(OCC2CC2)ccc2c1OB(O)[C@@H](Sc1nncs1)C2 [Compound 92, (3R)-7-(cyclopropylmethoxy)-2-hydroxy-3-(1,3,4-thiadiazol-2-ylsulfanyl)-3,4-dihydro-1,2-benzoxaborinine-8-carboxylic acid]",0.01 to 0.1,< 1,0.01 to 0.1,0.1 to 1,,,,< 0.1,Y (0.1 μM to 1 μM),X (Less than 0.1 μM)
O=C(O)c1c(OCc2nncs2)ccc2c1OB(O)[C@@H](Sc1nncs1)C2 [Compound 93],> 0.1,< 1,> 0.1,0.1 to 1,,,,< 0.1,Y (0.1 μM to 1 μM),X (Less than 0.1 μM)
"O=C(O)c1c(OC(F)F)ccc2c1OB(O)[C@@H](Sc1nncs1)C2 [Compound 94, (3R)-7-(difluoromethoxy)-2-hydroxy-3-(1,3,4-thiadiazol-2-ylsulfanyl)-3,4-dihydro-1,2-benzoxaborinine-8-carboxylic acid]",> 0.1,< 1,> 0.1,0.1 to 1,,,,< 0.1,Z (Greater than 1 μM),X (Less than 0.1 μM)
"CSCCOc1ccc2c(c1C(=O)O)OB(O)[C@@H](Sc1nncs1)C2 [Compound 95, (3R)-2-hydroxy-7-(2-methylsulfanylethoxy)-3-(1,3,4-thiadiazol-2-ylsulfanyl)-3,4-dihydro-1,2-benzoxaborinine-8-carboxylic acid]",0.01 to 0.1,< 1,0.01 to 0.1,0.1 to 1,,,,< 0.1,Y (0.1 μM to 1 μM),X (Less than 0.1 μM)
"COc1ccc2c(c1C(=O)O)OB(O)[C@@H](Sc1nnc(NC(=N)N)s1)C2 [Compound 106, (3R)-3-[(5-guanidino-1,3,4-thiadiazol-2-yl)sulfanyl]-2-hydroxy-7-methoxy-3,4-dihydro-1,2-benzoxaborinine-8-carboxylic acid]",> 0.1,< 1,> 0.1,0.1 to 1,,,,< 0.1,X (Less than 0.1 μM),X (Less than 0.1 μM)
"CS(=O)(=O)Nc1ccc2c(c1C(=O)O)OB(O)[C@@H](Sc1nnc(N)s1)C2 [Compound 120, (3R)-3-[(5-amino-1,3,4-thiadiazol-2-yl)sulfanyl]-2-hydroxy-7-(methanesulfonamido)-3,4-dihydro-1,2-benzoxaborinine-8-carboxylic acid]",< 0.01,< 1,< 0.01,0.1 to 1,,,,< 0.1,X (Less than 0.1 μM),X (Less than 0.1 μM)
